Results from patent US20260364184A1, “COMPOUND BASED ON OXOISOINDOLINYL-SUBSTITUTED TETRAHYDROPYRIMIDINE-DIONE AND USE THEREOF” (GLUETACS THERAPEUTICS (SHANGHAI) CO., LTD., priority 2023, published 2026).

What was measured:
FAK = target: T1, FAK (Homo sapiens, UniProt Q05397); assay: Western blot degradation of FAK; type: cell-based; details: A549 Cell; 24 hours
T1 construct: expression of target proteins in cells; endogenous in cells
Description: Conventional Western blot assay was performed to evaluate the effects of the compounds of the present disclosure on the expression of target proteins in cells.
(1) Cell Seeding and Protein Harvesting: The selected cells were processed according to the cell seeding procedure and protein harvesting procedure in Table II-2.
(2) To the collected supernatant, 5×SDS sample loading buffer was added, followed by denaturation at 95 °C for 5 minutes. The denatured samples were then separated by SDS-PAGE electrophoresis on a polyacrylamide gel. Proteins were transferred to a nitrocellulose membrane (0.45 μm NC membrane), blocked with blocking buffer at room temperature for 1 hour, and subjected to antibody incubation and development procedures according to the antibody manufacturer's instructions (Cell Signaling Technology).
Half-Maximal Degradation Concentration value (the drug concentration required for degrading proteins by 50%, abbreviated as DC50) reads method: comparing the grayscale values of Western blot bands from drug-treated samples with those from blank DMSO-treated controls, and identifying the drug concentration range at which the grayscale value is half that of the DMSO-treated control bands.
DC50 values can be calculated using ImageJ software to measure grayscale values of Western blot bands from drug-treated samples. The concentration-response curve is fitted to estimate the drug concentration corresponding to half the grayscale value.
Target protein remaining (%) refers to the percentage of target protein remaining in cells after treatment with protein degrader compounds.
Calculation method for target protein remaining (%): Use ImageJ software to measure grayscale values of Western blot bands from drug (protein degrader)-treated samples. The grayscale value of drug-treated bands is divided by that of internal control protein bands, and the resulting quotient is normalized to obtain the relative percentage of remaining target protein after protein degrader treatment.
Target protein degradation rate (%)=1−target protein remaining (%).

[1] = test system: Human Multiple myeloma cell line (MM.1S); assay: Inhibition of MM.1S cell proliferation (CellTiter luminescent viability); type: cell-based; details: Homo sapiens, MM1.S, Table IG1, FAK inhibitor-based, 96 hours
How it was run: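 IC50 is fitted from luminescent viability (CellTiter-Meiluncell) curves. Nine-point, 5-fold dilution series (top stock 2000 μM) are added at 0.5 μL per 100 μL medium to cells plated the day before, with growth at 37 °C and 5% CO2.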

T1 sequence (Q05397 whole entry): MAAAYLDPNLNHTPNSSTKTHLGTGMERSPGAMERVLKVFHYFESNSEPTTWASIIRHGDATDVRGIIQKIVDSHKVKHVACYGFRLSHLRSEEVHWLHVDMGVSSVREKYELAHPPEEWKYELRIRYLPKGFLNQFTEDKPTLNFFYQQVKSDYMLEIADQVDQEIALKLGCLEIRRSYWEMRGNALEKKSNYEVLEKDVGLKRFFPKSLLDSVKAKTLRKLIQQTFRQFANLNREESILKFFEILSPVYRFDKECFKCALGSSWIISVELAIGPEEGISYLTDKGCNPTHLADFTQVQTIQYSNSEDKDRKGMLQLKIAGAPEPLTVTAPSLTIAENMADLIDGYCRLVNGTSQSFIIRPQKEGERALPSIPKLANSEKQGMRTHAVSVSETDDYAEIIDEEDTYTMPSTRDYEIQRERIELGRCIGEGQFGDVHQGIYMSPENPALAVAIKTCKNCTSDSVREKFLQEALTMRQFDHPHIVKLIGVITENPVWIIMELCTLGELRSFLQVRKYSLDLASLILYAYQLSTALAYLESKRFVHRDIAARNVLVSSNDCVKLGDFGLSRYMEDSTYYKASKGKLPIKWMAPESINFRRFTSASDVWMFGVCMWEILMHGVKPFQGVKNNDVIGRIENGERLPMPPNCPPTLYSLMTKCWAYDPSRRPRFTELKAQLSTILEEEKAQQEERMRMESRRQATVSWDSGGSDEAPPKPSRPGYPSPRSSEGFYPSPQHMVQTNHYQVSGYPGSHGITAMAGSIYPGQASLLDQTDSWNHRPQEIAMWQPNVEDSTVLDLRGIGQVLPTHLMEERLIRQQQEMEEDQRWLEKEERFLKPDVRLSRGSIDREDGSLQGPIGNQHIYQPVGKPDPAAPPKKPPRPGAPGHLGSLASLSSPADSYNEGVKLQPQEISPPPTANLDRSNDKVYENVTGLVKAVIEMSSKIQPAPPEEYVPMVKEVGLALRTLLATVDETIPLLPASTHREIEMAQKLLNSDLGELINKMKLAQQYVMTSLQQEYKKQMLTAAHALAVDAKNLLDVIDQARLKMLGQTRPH

SMILES	Degradation of substrate protein FAK (substrate protein remaining %) (FAK)	inhibition at 0.01 µM ([1]; 10 nM, read-out: Inhibition Rate at 10 nM (%)) [%]	inhibition at 0.5 µM ([1]; 500 nM, read-out: Inhibition Rate at 500 nM (%)) [%]
CS(=O)(=O)c1cccc(CNc2nc(Nc3ccc(N4CCN(CC5CCN(c6ccc7c(c6)C(=O)N(N6CCC(=O)NC6=O)C7=O)CC5)CC4)cc3)ncc2C(F)(F)F)c1 [GT-07470, 2-(2,4-dioxotetrahydropyrimidin-1(2H)-yl)-5-(4-((4-(4-((4-((3-(methylsulfonyl)benzyl)amino)-5-(trifluoromethyl)pyrimidin-2-yl)amino)phenyl)piperazin-1-yl)methyl)piperidin-1-yl)isoindoline-1,3-dione]	A (0%≤substrate protein remaining %≤80%)		
CS(=O)(=O)c1cccc(CNc2nc(Nc3ccc(N4CCN(CC5CCN(c6cccc7c6C(=O)N(N6CCC(=O)NC6=O)C7=O)CC5)CC4)cc3)ncc2C(F)(F)F)c1 [GT-07471, 2-(2,4-dioxotetrahydropyrimidin-1(2H)-yl)-4-(4-((4-(4-((4-((3-(methylsulfonyl)benzyl)amino)-5-(trifluoromethyl)pyrimidin-2-yl)amino)phenyl)piperazin-1-yl)methyl)piperidin-1-yl)isoindoline-1,3-dione]	A (0%≤substrate protein remaining %≤80%)		
CNC(=O)c1ccccc1Nc1cc(Nc2ccc(N3CCN(Cc4ccc5c(c4)C(=O)N(N4CCC(=O)NC4=O)C5=O)CC3)cc2OC)ncc1C(F)(F)F [GT-07661, 2-((2-((4-(4-((2-(2,4-dioxotetrahydropyrimidin-1(2H)-yl)-1,3-dioxoisoindolin-5-yl)methyl)piperazin-1-yl)-2-methoxyphenyl)amino)-5-(trifluoromethyl)pyridin-4-yl)amino)-N-methylbenzamide]	A (0%≤substrate protein remaining %≤80%)	30 to 40	40 to 60
CNC(=O)c1ccccc1Nc1cc(Nc2cc(C)c(C3CCN(CC4CCN(c5ccc6c(c5)C(=O)N(N5CCC(=O)NC5=O)C6=O)CC4)CC3)cc2OC(C)C)ncc1C(F)(F)F [GT-07665, 2-((2-((4-(1-((1-(2-(2,4-dioxotetrahydropyrimidin-1(2H)-yl)-1,3-dioxoisoindolin-5-yl)piperidin-4-yl)methyl)piperidin-4-yl)-2-isopropoxy-5-methylphenyl)amino)-5-(trifluoromethyl)pyridin-4-yl)amino)-N-methylbenzamide]	A (0%≤substrate protein remaining %≤80%)		
CNC(=O)c1ccccc1Nc1cc(Nc2cc(C)c(C3CCN(CC4CCN(c5cccc6c5C(=O)N(N5CCC(=O)NC5=O)C6=O)CC4)CC3)cc2OC(C)C)ncc1C(F)(F)F [GT-07666, 2-((2-((4-(1-((1-(2-(2,4-dioxotetrahydropyrimidin-1(2H)-yl)-1,3-dioxoisoindolin-4-yl)piperidin-4-yl)methyl)piperidin-4-yl)-2-isopropoxy-5-methylphenyl)amino)-5-(trifluoromethyl)pyridin-4-yl)amino)-N-methylbenzamide]	A (0%≤substrate protein remaining %≤80%)		
